Laboratory results published in US6352715B1, “Transdermal rate-controlled delivery of Huperzine A for treatment of alzheimer's disease” (priority 1998, dated 2002).

Assays:
[1] = pH/solubility profile in buffers; format: physicochemical; conditions: 37° C., 24 hours
Experimental: In order to conserve the drug quantity being used, single point solubility determinations were carried out. Six different buffers were prepared in to determine the solubility of Hup A. The pH range chosen to study solubility is in 2 units above and 2 units below the pKa of the drug, i.e., 5 to 9. In addition, pH 7.4 was also selected to determine solubility at the physiological pH. To determine solubility, weighed amounts of Hup A were added to six different glass vials. In each vial, 1 ml of the respective buffer was added. The vials were tightly closed and kept in a shaking water bath maintained at 37° C. for 24 hours. At the end of such period, the supernatant solution was filtered through 0.22 um nylon filters into pre-warmed tubes. An aliquot of the filtrate was further diluted and analyzed by HPLC.
It can be seen that at pH 2 units above the pKa, i.e., at pH 9, the solubility of Hup A is the lowest. At low pH, i.e., at pH 5, the solubility of Hup A is seen to be high. This is expected as at pH 5, the drug predominantly exists as an ionized moiety with a single positive charge. These charged ions are hydrophilic and can be easily solubilized by water. At pH 9, the drug predominantly exists as an neutral moiety which is lipophilic, thus the solubility is low. The log of solubility as a function of solution pH is explained by the Henderson-Hasselback equation: […]

[2] = tested on: patients; conditions: orally 0.2 mg (4 tablets, b.i.d) for 8 weeks; cited from earlier work
[3] = Partitioning of Hup A into n-octanol from buffers of different pH; format: physicochemical; conditions: 48 hrs
Experimental: The buffers used to prepare solutions of Hup A for the partitioning study were the same as those used in the solubility studies, i.e., isotonic phosphate buffers with pH 5, 6, 7, 7.4, 8 and 9. Initially, 100 ml of n-octanol was mixed with 100 ml of phosphate buffers and placed in shaking water bath at 37° C. for 24 hours to saturate the n-octanol with buffer prior to study. Then the n-octanol was separated from the buffer using a separating funnel.
Solutions of Hup A (about 150 ug/ml concentration) were prepared separately in each of the six buffers. Then 1 ml each of each buffers was pipetted to three test tube. To these test tubes, 1 ml of the n-octanol was added. Controls were set up consisting only of buffer solutions without n-octanol to account for changes in concentration due to evaporation of buffer or degradation of drug if present. The tubes were sealed and placed in a shaking water bath at 37° C. for 48 hrs. Samples of 100 ul each were taken from both the n-octanol layer and the buffer layer and analyzed by HPLC. Partition coefficients were determined from the ratio of concentration of Hup A in n-octanol to that in buffer.
It appears that at high pH, when Hup A exists predominantly as a neutral moiety, the partition coefficient is high. As the pH is reduced the fraction of the unionized moiety decreases and so does the partition coefficient. At pH 5, when Hup A exists predominantly as a ionized moiety the partition coefficient is below 1, indicating high affinity of the drug for the buffer phase.

[4] = tested on: rat embryo hippocampus and cerebellum cultured cells; conditions: cited from earlier work
[5] = In vitro permeation of Hup A through human cadaver skin from donor solutions (Valia-Chien permeation cell); format: in vitro ADME; conditions: for Permeation arate: receptor pH 7.4; for Permeability × 10^3: values × 10^3
Experimental: Human cadaver skin is employed as model for studying in vitro transdermal permeation of Hup A. The skin specimens of human cadavers, obtained from Ohio Valley Skin & Tissue Center, are mounted between the two half cells of Valia-Chien Permeation Cell. Donor solutions were prepared in isotonic phosphate buffers of pH 5, 6, 7, 7.4, 8 and 9. Concentration of each solution was about 750 ug/ml. Permeation studies were carried out in triplicate at each pH evaluated. The receptor solution used in each case was isotonic phosphate buffer pH 7.4 to simulate physiological conditions.
As stated above human cadaver skin was used in the permeation studies. The skin, obtained frozen, was first thawed and rinsed with in normal saline. The skin was then blotted to remove excess moisture and cut into 2 cm×2 cm pieces. Each skin piece was sandwiched between two microscope glass slides and the thickness was measured using a micrometer. These skin pieces were then mounted between the two half-cell of Valia-Chien permeation cells, with the stratum corneum facing the donor half-cell. The respective donor and receptor solutions were added (3.3 ml each). Samples of 100 ul each were taken from the receptor compartment at various intervals up to 48 hours and were analyzed by HPLC. The volume of receptor compartment was replaced with fresh isotonic phosphate buffer after each sample. At end of 48 hours, a single aliquot was taken from the donor compartment and analyzed after suitable dilution to evaluate the amount of Hup A lost from the donor in 48 hours.
The rate of Hup A permeation is determined based on the general formula for the determination of the rate of permeation of a drug across a membrane as illustrated by the following equation (1): [formula]
Sink conditions were maintained throughout the permeation study i.e. Cd>>Cr. Permeability can be calculated using solubility of Hup A as the saturation concentration in donor cell (Cd). [formula]
Intrinsic permeability was calculated by correlating the permeability with the thickness of the skin:
Wherein P=intrinsic permeability and h=thickness in cm.
Generally speaking, higher the partitioning of the drug into the skin, higher the permeation will be. The pH-dependent partitioning behavior of Hup A is seen to be reflected in its skin permeation profiles. The intrinsic permeability-pH profiles of Hup A (FIG. 5) is similar to that observed for partition coefficient-pH relationship (FIG. 3). Again, a sigmoidal relationship is observed. Further, the amount lost from the donor solution, which corresponds to the sum of the amount permeated and the amount retained in the skin, was also seen to follow similar relationship (FIG. 6).

[6] = Determination of pKa of Hup A by pH titration; format: physicochemical; conditions: 5×10^−4 M in water titrated with HCl
Experimental: A solution of the Hup A was prepared in water to obtain a concentration of 5×10^−4 M solution. Hydrochloric acid solution 0.005M was prepared by dilution of concentrated acid. Similarly, a NaOH solution was prepared by diluting commercially available 1N solution.
For all titration, the procedure used was similar and is described below. The solution to be titrated was taken in a breaker and continually mixed using a magnetic stir bar. A pH electrode was used to measure pH of the solution during the experiments. The pH meter was connected to a computer, which was programmed to automatically obtain pH readings every 10 seconds. […]
First, the HCL solution was standardized by titrating it with standard NaOH solution. This was carried out three times an d end point was determined from the inflection point using the titration profile. […]
The pH titration curve consists of […]: initial gradual decrease in pH as the base is slowly neutralized by the acid; middle region showing slow decrease in pH as excess acid is added to the solution. The pKa of the base is calculated from the initial region. The pH corresponding to midpoint of the initial part of the curve is the approximate pKa of the Hup A. Further, the exact pKa of Hup A was calculated by method described by Albert and Sergeant (1971), which is incorporated herein by reference. […]

[7] = tested on: rat cortex; conditions: cited from earlier work
[8] = single oral dose of 0.99 mg, six volunteers; cited from earlier work

Question: With `C/C=C1\[C@H]2C=C(C)C[C@]1(N)c1ccc(=O)[nH]c1C2` [Hup A, Huperzine A] as the compound, how does the Solubility ([1]; pH 5 buffer) read?
Answer: 6.225 (0.153) mg/ml

Question: And the Solubility ([1]; pH 6 buffer)?
Answer: 4.639 (0.001) mg/ml

Question: What about the Solubility ([1]; pH 7 buffer) of the same compound?
Answer: 2.123 (0.042) mg/ml

Question: What about the Solubility ([1]; pH 7.4 buffer) of the same compound?
Answer: 1.325 (0.042) mg/ml

Question: What about the Solubility ([1]; pH 8 buffer) of the same compound?
Answer: 1.201 (0.017) mg/ml

Question: What about the Solubility ([1]; pH 9 buffer) of the same compound?
Answer: 1.044 (0.018) mg/ml

Question: And the “patients with significant improvement in memory, cognition and behavior” value [2]?
Answer: 58%

Question: And the side effects [2]?
Answer: without causing any severe side effects

Question: What about the “Partition Coefficient” value ([3]; n-octanol/buffer pH 6, 37° C.) of the same compound?
Answer: 1.681 (0.010)

Question: And the “Partition Coefficient” value ([3]; n-octanol/buffer pH 7, 37° C.)?
Answer: 11.376 (0.415)

Question: What about the “Partition Coefficient” value ([3]; n-octanol/buffer pH 7.4, 37° C.) of the same compound?
Answer: 18.359 (0.294)

Question: And the “Partition Coefficient” value ([3]; n-octanol/buffer pH 8, 37° C.)?
Answer: 24.063 (0.515)

Question: What about the “Partition Coefficient” value ([3]; n-octanol/buffer pH 9, 37° C.) of the same compound?
Answer: 27.463 (0.131)

Question: What about the “death of neuronal cell caused by toxic levels of glutamate” value [4] of the same compound?
Answer: decreases the death of neuronal cell

Question: What about the Permeation arate ([5]; donor pH 5, about 750 ug/ml) of the same compound?
Answer: 0.776 (0.029) ug/cm^2/hr

Question: What about the “Permeability × 10^3” value ([5]; donor pH 5) of the same compound?
Answer: 1.026 (0.038) cm/hr

Question: And the Permeation arate ([5]; donor pH 6, about 750 ug/ml)?
Answer: 0.213 (0.088) ug/cm^2/hr

Question: What about the “Permeability × 10^3” value ([5]; donor pH 6) of the same compound?
Answer: 0.290 (0.119) cm/hr

Question: What about the Permeation arate ([5]; donor pH 7, about 750 ug/ml) of the same compound?
Answer: 0.633 (0.225) ug/cm^2/hr

Question: And the “Permeability × 10^3” value ([5]; donor pH 7)?
Answer: 0.846 (0.300) cm/hr

Question: What about the Permeation arate ([5]; donor pH 7.4, about 750 ug/ml) of the same compound?
Answer: 0.759 (0.368) ug/cm^2/hr

Question: And the “Permeability × 10^3” value ([5]; donor pH 7.4)?
Answer: 1.007 (0.489) cm/hr

Question: What about the “Permeability × 10^3” value ([5]; donor pH 8) of the same compound?
Answer: 4.434 (1.7050) cm/hr

Question: And the Permeation arate ([5]; donor pH 9, about 750 ug/ml)?
Answer: 5.082 (2.162) ug/cm^2/hr

Question: And the “Permeability × 10^3” value ([5]; donor pH 9)?
Answer: 6.118 (2.603) cm/hr

Question: What about the pKa [6] of the same compound?
Answer: 6.97 (+/−0.06)

Question: And the “permeation through the blood-brain barrier” value ([7]; rat, in vivo)?
Answer: able to permeate through the blood-brain barrier

Question: What about the “Ach, norepinephrine and dopamine in rat cortex” value ([7]; systemic or local administration) of the same compound?
Answer: dose-dependent increase

Question: What about the pharmaco-kinetics evaluation [8] of the same compound?
Answer: absorbed rapidly, distributed widely in the body, and eliminated at a moderate rate
